Experiments:
[1] = Brain to plasma partition coefficient, Kp of the compound in rat; assay type: ADME, organism-based; details: brain and plasma
in vivo = details: rat, brain and plasma
Description: Unbound brain-to-plasma concentration ratio in rat

Row | SMILES | Kp [1] | Kp uu (in vivo)
1 | CN(C)CCCN1c2ccccc2Sc2ccc(Cl)cc21 [CHLORPROMAZINE] | 8.5 | 0.9
2 | CN1CCN(C2=Nc3cc(Cl)ccc3Nc3ccccc32)CC1 [CLOZAPINE] | 8.5 | 0.9
3 | Cc1nc2n(c(=O)c1CCN1CCC(c3noc4cc(F)ccc34)CC1)CCCC2 [RISPERIDONE] | 8.5 | 0.9

Next, values leading:

Row | Kp [1] | Kp uu (in vivo) | SMILES
4 | 8.5 | 0.9 | O=C(CCCN1CCC(O)(c2ccc(Cl)cc2)CC1)c1ccc(F)cc1 [HALOPERIDOL]
5 | 8.5 | 0.9 | OCCOCCN1CCN(C2=Nc3ccccc3Sc3ccccc32)CC1 [QUETIAPINE]
6 | 8.5 | 0.9 | O=C1Cc2cc(CCN3CCN(c4nsc5ccccc45)CC3)c(Cl)cc2N1 [ZIPRASIDONE]
